Reference: PubChem BioAssay AID2060890 (Molecular Pharmacology Branch, DTP, NCI, 2025)
Values belong to the molecule of their own block, whether it stands above or below them.

Tested on: LG0703-F948-PDC complex spheroid viability
Assay: Anticancer human tumor LG0703-F948-PDC patient-derived lung adenocarcinoma cell line growth inhibition [RAS]
Details: for IC50: curve of first compound; for viability, T/C: stronger effect = lower value
Excerpt: RAS pathway inhibitors in Combinations in Complex Spheroids
A high-throughput screen of multi-cell type tumor spheroids was designed to identify active combinations of RAS pathway inhibitors and targeted small molecules. Complex spheroids include a stromal component modeled by human endothelial cells (HUVEC) and fibroblasts modeled by human mesenchymal stem cells (MSCs). The concentration ranges selected for each drug and investigational agent were based upon clinically achievable concentrations if the clinical Cmax of the agent was known.
Compounds. The drugs and investigational agents: abemaciclib (NSC768073), cobimetinib (NSC768068), divarasib (GDC6063, NSC841802), docetaxel (NSC628503), GDC-1971 (RLY-1971, NSC841576), gemcitabine (NSC613327), inavolisib (NSC800729), ipatasertib (NSC767898), KB-0742 (NSC834161), MRTX-1133 (NSC836407), osimertinib (NSC779217), RMC-4630 (NSC839698), RMC-6236 (NSC851965), RMC-6291 (NSC852671), Ro-3306 (NSC812927), sapanisertib (NSC764658), SN-38 (NSC673596), staurosporine (NSC755774), SY5609 (NSC837396), and tovorafenib (DAY101, NSC766906), were obtained from the National Cancer Institute (NCI) Developmental Therapeutics Program Chemical Repository. The FDA-approved anticancer drug set is available from the NCI Developmental Therapeutics Program. […] The stock solutions were prepared in dimethyl sulfoxide (DMSO, Sigma-Aldrich, St. Louis, MO, cat. D2650) at 800-fold the tested concentration and stored at -70 degrees C prior to their use. All drugs and investigational agents were tested over a range starting from a high concentration at or near the clinical Cmax and decreasing in half-log increments. If the clinical Cmax for an agent had not been determined, the highest concentration tested was 10 microM.
Cell Culture. All cells were maintained in an incubator at 37 degrees C and 5% CO2 with 95% humidity. The PDC lines were cultured according to standard operating procedures established by the NCI PDMR. All PDCs were thawed and cultured in Matrigel-coated flasks prepared with a working solution of 1X Ham's F-12 nutrient mix, without supplementation (Invitrogen, Waltham, MA, cat. 11765054), 100 U/mL penicillin-streptomycin (Invitrogen, cat. 15140122), and 2.5% Matrigel (Corning Inc., Corning, NY, cat. 354248) for the first three passages. The 362531-283-R-J2-PDC and 782815-120-R-J1-PDC lines were cultured in 6C/Colon 1B media, which includes advanced DMEM/F-12 (Thermo Fisher Scientific, cat. 12634028), 10 mM HEPES (Thermo Fisher Scientific, cat. 15630080), 1X GlutaMAX supplement (Thermo Fisher Scientific, cat. 35050061), 0.1 mg/mL primocin (InvivoGen, San Diego, CA, cat. ant-pm-2), 10% defined fetal bovine serum, heat inactivated (HyClone Laboratories Inc., Logan, UT, cat. SH30070.03HI), 50% L-WRN conditioned media (ATCC, cat. CRL-3276), 1.25 mM N-Acetyl-L-cysteine (Sigma-Aldrich, cat. A9165), 10 mM nicotinamide (Sigma-Aldrich, cat. N0636), 1X B-27 supplement (Thermo Fisher Scientific, cat. 17504044), 1X N-2 supplement (Thermo Fisher Scientific, cat. 17502048), 50 ng/mL human EGF (Thermo Fisher Scientific, cat. PHG0311), and 10 microM Y-27632 dihydrochloride (Tocris Bioscience, cat. 1254). The K12877-001-R-J1-PDC line was cultured in 6I media, which includes all 6C/Colon 1B media plus 10 ng/mL human FGF-10 (PeproTech, cat. 100-26), 1 ng/mL human FGF-2 (PeproTech, cat. 100-18B), 1 µM prostaglandin E2 (Tocris Bioscience, cat. 2296), […] hydrocortisone (Sigma-Aldrich, cat. H4001), and […] bovine insulin (Sigma-Aldrich, cat. I6634). The K86415-001-R-J1-PDC line was cultured in 6D media, which includes all 6C/Colon 1B media components minus the L-WRN conditioned media. The 485176-168-R4-J1-PDC was cultured in PANC media, which includes all 6C/Colon 1B media plus 100 ng/mL human FGF-10 (PeproTech, cat. 100-26), 500 nM SB-431542 (Selleckchem, cat. S1067), and 10 nM gastrin (Tocris Bioscience, cat. 3006). […]
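Further: spheroids exposed to agents for 7 days.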
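Wherever viability, T/C is given: 100% = DMSO vehicle wells.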

- IC50 (second compound 0.000949 µM): 83.9 nM
- IC50 (second compound 0.003 µM): 77 nM
- IC50 (second compound 0.00949 µM): 63.7 nM
- IC50 (second compound 0.03 µM): 51.8 nM
- IC50 (second compound 0.0949 µM): 19.9 nM
- IC50 (second compound 0.3 µM): < 0.949 nM
Structure (SMILES): CCc1c2c(nc3ccc(O)cc13)-c1cc3c(c(=O)n1C2)COC(=O)[C@]3(O)CC + CCn1c(-c2cccnc2C(C)OC)c2c3cc(ccc31)N1CCOC(CC(NC(=O)C(C(C)C)N(C)C(=O)C3(F)CCN(C(=O)C#CC(C)(C)N(C)C)CC3)C(=O)N3CCCC(N3)C(=O)OCC(C)(C)C2)C1
- viability, T/C (second compound 0.000949 µM, first compound 0.000949 µM): 123%
- viability, T/C (second compound 0.000949 µM, first compound 0.003 µM): 86.9%
- viability, T/C (second compound 0.000949 µM, first compound 0.00949 µM): 103%
- viability, T/C (second compound 0.000949 µM, first compound 0.03 µM): 66%
- viability, T/C (second compound 0.000949 µM, first compound 0.0949 µM): 43.3%
- viability, T/C (second compound 0.000949 µM, first compound 0.3 µM): 30.6%
- viability, T/C (second compound 0.003 µM, first compound 0.000949 µM): 130%
- viability, T/C (second compound 0.003 µM, first compound 0.003 µM): 102%
- viability, T/C (second compound 0.003 µM, first compound 0.00949 µM): 103%
- viability, T/C (second compound 0.003 µM, first compound 0.03 µM): 60.5%
- viability, T/C (second compound 0.003 µM, first compound 0.0949 µM): 48.1%
- viability, T/C (second compound 0.003 µM, first compound 0.3 µM): 30.3%
- viability, T/C (second compound 0.00949 µM, first compound 0.000949 µM): 111%
- viability, T/C (second compound 0.00949 µM, first compound 0.003 µM): 103%
- viability, T/C (second compound 0.00949 µM, first compound 0.00949 µM): 104%
- viability, T/C (second compound 0.00949 µM, first compound 0.03 µM): 62.4%
- viability, T/C (second compound 0.00949 µM, first compound 0.0949 µM): 46.8%
- viability, T/C (second compound 0.00949 µM, first compound 0.3 µM): 26%
- viability, T/C (second compound 0.03 µM, first compound 0.000949 µM): 113%
- viability, T/C (second compound 0.03 µM, first compound 0.003 µM): 93.9%
- viability, T/C (second compound 0.03 µM, first compound 0.00949 µM): 87.5%
- viability, T/C (second compound 0.03 µM, first compound 0.03 µM): 56%
- viability, T/C (second compound 0.03 µM, first compound 0.0949 µM): 40.4%
- viability, T/C (second compound 0.03 µM, first compound 0.3 µM): 27.4%
- viability, T/C (second compound 0.0949 µM, first compound 0.000949 µM): 85.7%
- viability, T/C (second compound 0.0949 µM, first compound 0.003 µM): 91.2%
- viability, T/C (second compound 0.0949 µM, first compound 0.00949 µM): 63.3%
- viability, T/C (second compound 0.0949 µM, first compound 0.03 µM): 42.7%
- viability, T/C (second compound 0.0949 µM, first compound 0.0949 µM): 27.1%
- viability, T/C (second compound 0.0949 µM, first compound 0.3 µM): 22.9%
- viability, T/C (second compound 0.3 µM, first compound 0.000949 µM): 44%
- viability, T/C (second compound 0.3 µM, first compound 0.003 µM): 49.9%
- viability, T/C (second compound 0.3 µM, first compound 0.00949 µM): 46.3%
- viability, T/C (second compound 0.3 µM, first compound 0.03 µM): 25.8%
- viability, T/C (second compound 0.3 µM, first compound 0.0949 µM): 19.2%
- viability, T/C (second compound 0.3 µM, first compound 0.3 µM): 14.1%

- IC50 (second compound 0.0316 µM): 43.3 nM
- IC50 (second compound 0.1 µM): < 31.6 nM
- IC50 (second compound 0.316 µM): < 31.6 nM
- IC50 (second compound 1 µM): < 31.6 nM
- IC50 (second compound 3.16 µM): < 31.6 nM
- IC50 (second compound 10 µM): < 31.6 nM
Structure (SMILES): NC1c2ccccc2OC12CCN(c1cnc3c(N4CCCc5ncccc54)n[nH]c3n1)CC2 (centres undefined) + C#Cc1c(F)ccc2cc(O)cc(-c3ncc4c(N5CC6CCC(C5)N6)nc(OCC56CCCN5CC(F)C6)nc4c3F)c12
- viability, T/C (second compound 0.0316 µM, first compound 0.0316 µM): 56.9%
- viability, T/C (second compound 0.0316 µM, first compound 0.1 µM): 32.3%
- viability, T/C (second compound 0.0316 µM, first compound 0.316 µM): 14.9%
- viability, T/C (second compound 0.0316 µM, first compound 1 µM): 16.3%
- viability, T/C (second compound 0.0316 µM, first compound 3.16 µM): 5.44%
- viability, T/C (second compound 0.0316 µM, first compound 10 µM): 2.29%
- viability, T/C (second compound 0.1 µM, first compound 0.0316 µM): 48.8%
- viability, T/C (second compound 0.1 µM, first compound 0.1 µM): 27.7%
- viability, T/C (second compound 0.1 µM, first compound 0.316 µM): 16.5%
- viability, T/C (second compound 0.1 µM, first compound 1 µM): 8.26%
- viability, T/C (second compound 0.1 µM, first compound 3.16 µM): 4.2%
- viability, T/C (second compound 0.1 µM, first compound 10 µM): 2.16%
- viability, T/C (second compound 0.316 µM, first compound 0.0316 µM): 43.7%
- viability, T/C (second compound 0.316 µM, first compound 0.1 µM): 30.5%
- viability, T/C (second compound 0.316 µM, first compound 0.316 µM): 14.4%
- viability, T/C (second compound 0.316 µM, first compound 1 µM): 6.72%
- viability, T/C (second compound 0.316 µM, first compound 3.16 µM): 4.41%
- viability, T/C (second compound 0.316 µM, first compound 10 µM): 2.49%
- viability, T/C (second compound 1 µM, first compound 0.0316 µM): 28.2%
- viability, T/C (second compound 1 µM, first compound 0.1 µM): 21.9%
- viability, T/C (second compound 1 µM, first compound 0.316 µM): 9.98%
- viability, T/C (second compound 1 µM, first compound 1 µM): 6.62%
- viability, T/C (second compound 1 µM, first compound 3.16 µM): 3.17%
- viability, T/C (second compound 1 µM, first compound 10 µM): 1.84%
- viability, T/C (second compound 3.16 µM, first compound 0.0316 µM): 28.2%
- viability, T/C (second compound 3.16 µM, first compound 0.1 µM): 15.1%
- viability, T/C (second compound 3.16 µM, first compound 0.316 µM): 11.1%
- viability, T/C (second compound 3.16 µM, first compound 1 µM): 6.14%
- viability, T/C (second compound 3.16 µM, first compound 3.16 µM): 4.26%
- viability, T/C (second compound 3.16 µM, first compound 10 µM): 1.29%
- viability, T/C (second compound 10 µM, first compound 0.0316 µM): 21%
- viability, T/C (second compound 10 µM, first compound 0.1 µM): 13.5%
- viability, T/C (second compound 10 µM, first compound 0.316 µM): 5.38%
- viability, T/C (second compound 10 µM, first compound 1 µM): 2.35%
- viability, T/C (second compound 10 µM, first compound 3.16 µM): 2.25%
- viability, T/C (second compound 10 µM, first compound 10 µM): 0.66%
